Tests used:
[1] = test system: lambs with acute pulmonary hypertension; details: cited from earlier work; for pulmonary vasodilation / effect on mean arterial pressure / transpulmonary cGMP release / systemic arterial oxygenation: inhaled microparticles, awake lambs; for pulmonary vasodilation: U-46619 infused to mean pulmonary arterial pressure 35 mm Hg; for effect on mean arterial pressure / transpulmonary cGMP release / systemic arterial oxygenation: U-46619 infusion
[2] = molecular target: T1, soluble guanylate cyclase (sGC) (Homo sapiens, UniProt Q02108+Q02153); experiment: sGC-HEK-cGMP assay with SNP incubation (LC/MS read-out); assay type: cell-based; details: 10 μM SNP; for Emax at 1 µM: 1 μM compound, read-out: HEK assay (Percent Emax at 1 μM); for Emax at 1 µM / Emax at 10 µM / Emax at 30 µM: 100% = BAY 41-2272 at 10 μM with 100 μM SNP; for Emax at 10 µM: 10 μM compound, read-out: HEK assay (Percent Emax at 10 μM); for Emax at 30 µM: 30 μM compound, read-out: HEK assay (Percent Emax at 30 μM); for Emax: maximum of full concentration-response curve, top not fitted to 100%, relative to BAY 41-2272 control, read-out: HEK assay Emax-unconstrained (Percent); for EC50: top of curve not fitted to 100%, read-out: HEK assay EC50-unconstrained
T1 construct: endogenously expressing soluble guanylate cyclase (sGC); endogenous in cells; host or cells: HEK293
T1 sequence (Q02153 1-619): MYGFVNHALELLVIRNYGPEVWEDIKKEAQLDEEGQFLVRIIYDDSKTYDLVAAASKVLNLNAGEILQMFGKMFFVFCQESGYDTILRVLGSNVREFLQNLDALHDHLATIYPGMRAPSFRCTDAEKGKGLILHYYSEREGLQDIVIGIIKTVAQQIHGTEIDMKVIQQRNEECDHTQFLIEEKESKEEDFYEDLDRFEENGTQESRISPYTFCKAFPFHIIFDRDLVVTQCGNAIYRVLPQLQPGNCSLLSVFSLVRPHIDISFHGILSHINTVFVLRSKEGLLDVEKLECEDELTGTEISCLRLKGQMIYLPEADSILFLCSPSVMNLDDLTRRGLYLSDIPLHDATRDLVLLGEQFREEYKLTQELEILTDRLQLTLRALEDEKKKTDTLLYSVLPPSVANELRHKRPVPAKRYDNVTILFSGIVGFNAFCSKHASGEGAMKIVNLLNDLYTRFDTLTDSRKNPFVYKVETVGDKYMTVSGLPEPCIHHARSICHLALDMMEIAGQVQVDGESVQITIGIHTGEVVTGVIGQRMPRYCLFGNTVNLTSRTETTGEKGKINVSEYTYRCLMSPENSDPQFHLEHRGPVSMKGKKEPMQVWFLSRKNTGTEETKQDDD
T1 sequence (Q02108 1-690): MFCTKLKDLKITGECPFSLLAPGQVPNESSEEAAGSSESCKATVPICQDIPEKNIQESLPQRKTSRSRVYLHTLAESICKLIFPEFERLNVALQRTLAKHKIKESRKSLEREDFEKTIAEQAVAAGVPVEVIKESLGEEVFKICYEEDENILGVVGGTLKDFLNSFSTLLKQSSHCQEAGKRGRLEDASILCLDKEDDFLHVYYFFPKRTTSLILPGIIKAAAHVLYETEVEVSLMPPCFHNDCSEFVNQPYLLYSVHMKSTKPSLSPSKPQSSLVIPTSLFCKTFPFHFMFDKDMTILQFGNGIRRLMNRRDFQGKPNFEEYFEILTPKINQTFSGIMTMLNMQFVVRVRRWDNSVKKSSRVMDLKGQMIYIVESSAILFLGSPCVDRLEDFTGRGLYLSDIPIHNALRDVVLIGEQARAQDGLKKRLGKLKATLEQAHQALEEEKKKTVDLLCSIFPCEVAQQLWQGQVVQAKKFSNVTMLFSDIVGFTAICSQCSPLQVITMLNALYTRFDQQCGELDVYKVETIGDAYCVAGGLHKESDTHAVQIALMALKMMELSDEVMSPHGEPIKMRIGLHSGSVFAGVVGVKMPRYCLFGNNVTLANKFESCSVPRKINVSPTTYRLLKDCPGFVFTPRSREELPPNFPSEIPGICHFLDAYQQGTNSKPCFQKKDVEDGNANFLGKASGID
Procedure: (Assay Run with SNP Incubation)
(§1) Human embryonic kidney cells (HEK293), endogenously expressing soluble guanylate cyclase (sGC), were used to evaluate the activity of test compounds. Compounds stimulating the sGC receptor should cause an increase in the intracellular concentration of cGMP. HEK 293 cells were seeded in Dulbecco's Modification of Eagle's Medium supplemented with fetal bovine serum (10% final) and L-glutamine (2 mM final) in a 200 μL volume at a density of 1×10^5 cells/well in a poly-D-lysine coated 96 well flat bottom plate and grown overnight at 37° C. Medium was aspirated and cells were washed with 1× Hank's Buffered Saline Salt Solution (200 μL). Cells were then incubated for 15 minutes at 37° C. with 200 μL of a 0.5 mM 3-isobutyl-1-methylxanthine (IBMX) solution. Test article and sodium nitroprusside solutions (x μM concentration for test article solution and 10 μM concentration for SNP solution; wherein x is one of the following concentrations);
were then added to the assay mixture (2 μL each) and the resulting mixture incubated at 37° C. for 10 minutes. After the 10 minute incubation, the assay mixture was aspirated and 0.1M HCl (200 μL) was added to the cells. The plate was incubated at 4° C. for 30 minutes in the 0.1M HCl to stop the reaction and lyse the cells. The plates were then centrifuged at 1,200 g for 5 minutes at room temperature. Supernatants were collected and transferred to a new flat bottom 96 well plate for analysis by HPLC-MS. Vehicle controls were carried out using DMSO (1%) solutions. A known sGC stimulator, BAY 41-2272, was used as the positive control. Samples were diluted with an equal volume of 1 M Ammonium Acetate (pH 7) to neutralize samples for better chromatography. A 2×cGMP standard solution was prepared in 0.1 M HCl and then diluted with an equal volume of 1 M Ammonium Acetate, with the following final concentrations in nM: 1024, 512, 256, 128, 64, 32, 16, 8, 4, 2, 1. cGMP concentrations in the test plates were determined from each sample using the LC/MS conditions shown in Table 2 below and the calculated cGMP standard curve. EC50 values were calculated from concentration-response curves generated with GraphPad Prism Software.
The biological activities of some of the compounds of Formula I or Formula Ib determined with the sGC-HEK assay with SNP incubation are summarized in Tables 3A and 3B.

[3] = molecular target: T1, soluble guanylate cyclase (sGC); experiment: HEK whole cell assay using HTRF procedure (with SNP incubation); assay type: cell-based; details: HTRF cGMP read-out, 10 μM SNP; for Emax: relative to BAY 41-2272 at 10 μM with 100 μM SNP, read-out: HEK assay Emax-unconstrained (Percent); for EC50: top of curve not fitted to 100%, read-out: HEK assay EC50-unconstrained
Procedure: Example 2B, HEK whole cell assay using HTRF procedure (Assay Run with SNP Incubation)
as §1, with “enzyme” for “receptor”
were then added to the assay mixture (2 μL each) and the resulting mixture incubated at 37° C. for 10 minutes. After the 10 minute incubation, the assay mixture was aspirated and 0.1M HCl (200 μL) was added to the cells. The plate was incubated at 4° C. for 30 minutes in the 0.1M HCl to stop the reaction and lyse the cells. The plates were then centrifuged at 1,200 g for 5 minutes at room temperature.
cGMP levels were determined using a cGMP HTRF assay (Cisbio Product #62GM2PEC). For each sample, 5 uL of HEK assay supernatant was diluted 1:5 in HTRF kit assay diluent and transferred to a well of the assay plate, and the HTRF assay was performed according to the HTRF kit manufacturer's instructions. Sample calculations were performed using high and low controls, where high control was supernatant from HEK assay performed in the presence of 10 uM Bay 41-2272+100 uM SNP, and the low control was the supernatant from the HEK assay performed in the presence of vehicle. A cGMP standard solution was prepared in 0.1 M HCl and diluted in order to perform a cGMP standard curve using the HTRF assay. Using Mean Ratio data from the HTRF assay, sample date were normalized according to the equation: 100*(Sample−Low Control)/(High Control−Low Control). Data were fit to a 3-parameter log agonist dose response (Top (% EMax), Bottom, log EC50) using Graphpad (Prism Software). Data in Table 3C was obtained using this modified assay procedure.

Emax at 1 µM [2] [%]	Emax at 10 µM [2] [%]	Emax at 30 µM [2] [%]	Emax [2] [%]	EC50 [2] [nM]	SMILES	also measured
–	–	–	–	–	Nc1nc(-c2nn(Cc3ccccc3F)c3ncccc23)ncc1C1CC1 [BAY 41-2272]	pulmonary vasodilation [1]: dose dependent pulmonary vasodilation; effect on mean arterial pressure [1]: without significant effect; transpulmonary cGMP release [1]: increased transpulmonary cGMP release
–	–	–	–	–	Nc1nc(-c2nn(Cc3ccccc3F)c3ncccc23)nc(N)c1N1CCOCC1 [BAY 41-8543]	magnitude and duration of pulmonary vasodilation induced by iNO ([1]; after inhaling microparticles, lambs): augmented; pulmonary vasodilation [1]: dose dependent pulmonary vasodilation; effect on mean arterial pressure [1]: without significant effect; systemic arterial oxygenation [1]: increased systemic arterial oxygenation; transpulmonary cGMP release [1]: increased transpulmonary cGMP release
–	–	–	–	–	O=C(O)CCCCN(CCc1ccccc1OCc1ccc(CCc2ccccc2)cc1)Cc1ccc(C(=O)O)cc1 [BAY 58-2667]	pulmonary vasodilation and transpulmonary cGMP release after treatment with ODQ ([1]; inhaled microparticles after intravenous ODQ, lambs): greatly enhanced; pulmonary vasodilation [1]: dose dependent pulmonary vasodilation; effect on mean arterial pressure [1]: without significant effect; systemic arterial oxygenation [1]: increased systemic arterial oxygenation; transpulmonary cGMP release [1]: increased transpulmonary cGMP release
60 to 80	80 to 100	80 to 100	80 to 100	10 to 100	O=c1[nH]c(-n2cc(-c3ccon3)c(Cc3ccccc3F)n2)ncc1F [Compound I-1]	–
80 to 100	100 to 120	100 to 120	100 to 120	10 to 100	CC(C)[C@@H](C(=O)O)N(C)c1nc(-n2cc(-c3ccon3)c(Cc3ccccc3F)n2)ncc1F [Compound I-4]	–
–	–	–	–	–	OCC(CO)Nc1nc(-n2cc(-c3ccon3)c(Cc3ccccc3F)n2)ncc1F [Compound I-5]	Emax [3]: 80 to 100%; EC50 [3]: 100 to 500 nM
–	–	–	–	–	Fc1ccccc1Cc1nn(-c2ncc(F)c(N3CCOCC3)n2)cc1-c1ccon1 [Compound I-6]	Emax [3]: 80 to 100%; EC50 [3]: 100 to 500 nM
–	–	–	–	–	OCC(O)Cn1ccc2cnc(-n3cc(-c4ccon4)c(Cc4ccccc4F)n3)nc21 (stereo not shown) [Compound I-7]	Emax [3]: 80 to 100%; EC50 [3]: 100 to 500 nM
60 to 80	80 to 100	80 to 100	80 to 100	100 to 500	Nc1ccnc(-n2cc(-c3ccon3)c(Cc3ccccc3F)n2)n1 [Compound I-9]	–
20 to 40	20 to 40	20 to 40	20 to 40	500 to 1000	COc1nc(-n2cc(-c3ccon3)c(Cc3ccccc3F)n2)ncc1F [Compound I-10]	–
–	–	–	–	–	O=c1onc2cnc3ccccc3n12 [ODQ, 1H-[1,2,4]oxadiazolo[4,3-a]quinoxalin-1-one]	pulmonary vasodilator effect of iNO ([1]; intravenous administration, lambs): markedly reduced
